In patent US9040547B2, “Pyrrolopyrimidine and purine derivatives” (PFIZER INC., priority 2011, dated 2015):

How the values were obtained:
Format in all cases: cell-based
EGFR L858R, endogenous = target: T1, EGFR L858R, endogenous (Homo sapiens, UniProt P00533, L858R); test: pEGFR Y1068 ELISA assay, NCI-H3255 cells; conditions: value marked (H3255): NCI-H3255 cells, 2 hrs compound treatment; read-out: pEGFRY1068 ELISA3T3 L858R IC50 (nM), (H3255)
T1 construct: NCI-H3255 (EGFR L858R, endogenous); endogenous in cells; host or cells: NCI-H3255
T1 sequence (P00533 25-1210 L858R): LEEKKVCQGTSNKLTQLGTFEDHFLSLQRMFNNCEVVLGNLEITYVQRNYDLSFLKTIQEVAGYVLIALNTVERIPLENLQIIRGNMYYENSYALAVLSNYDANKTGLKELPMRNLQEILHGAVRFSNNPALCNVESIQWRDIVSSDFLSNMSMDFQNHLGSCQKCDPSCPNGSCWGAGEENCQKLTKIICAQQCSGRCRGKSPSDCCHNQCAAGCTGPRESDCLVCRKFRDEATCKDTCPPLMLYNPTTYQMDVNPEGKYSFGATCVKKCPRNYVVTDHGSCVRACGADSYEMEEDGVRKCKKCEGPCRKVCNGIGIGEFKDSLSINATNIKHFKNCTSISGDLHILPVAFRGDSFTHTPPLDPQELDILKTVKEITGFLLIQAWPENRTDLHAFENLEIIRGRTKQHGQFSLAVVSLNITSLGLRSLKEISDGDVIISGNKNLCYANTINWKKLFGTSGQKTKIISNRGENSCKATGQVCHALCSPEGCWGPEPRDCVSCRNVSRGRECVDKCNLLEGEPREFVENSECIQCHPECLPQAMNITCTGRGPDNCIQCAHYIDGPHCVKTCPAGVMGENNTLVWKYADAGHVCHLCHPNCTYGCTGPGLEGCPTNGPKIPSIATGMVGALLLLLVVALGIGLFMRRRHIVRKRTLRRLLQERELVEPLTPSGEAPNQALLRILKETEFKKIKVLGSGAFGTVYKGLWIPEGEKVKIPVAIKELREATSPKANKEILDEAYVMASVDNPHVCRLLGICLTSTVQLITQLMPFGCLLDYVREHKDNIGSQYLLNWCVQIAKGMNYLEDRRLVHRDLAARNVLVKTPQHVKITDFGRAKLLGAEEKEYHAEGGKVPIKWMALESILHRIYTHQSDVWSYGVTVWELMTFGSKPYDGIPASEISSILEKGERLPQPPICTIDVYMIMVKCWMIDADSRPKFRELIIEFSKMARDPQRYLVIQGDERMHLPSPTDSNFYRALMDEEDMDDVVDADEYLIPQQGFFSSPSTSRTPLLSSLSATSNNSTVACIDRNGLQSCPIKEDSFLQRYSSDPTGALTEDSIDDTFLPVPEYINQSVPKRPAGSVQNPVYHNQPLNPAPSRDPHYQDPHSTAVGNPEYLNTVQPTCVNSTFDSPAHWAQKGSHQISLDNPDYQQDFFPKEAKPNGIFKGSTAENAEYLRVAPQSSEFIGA

[1] = target: T2, EGFR wildtype, endogenous (Homo sapiens, UniProt P00533); test: pEGFR Y1068 ELISA assay, A549 cells; conditions: full serum media, stimulated 10 min with EGF (40 ng/mL), read-out: pEGFRY1068 ELISAA549 IC50;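 note: sandwich ELISA of phospho-EGFR Tyr1068 in cell lysates, cells exposed to compound for 2 h before EGF stimulation, 11-point threefold dilution series run in duplicate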
T2 construct: A549 (EGFR wildtype, endogenous); host or cells: A549
T2 sequence (P00533 25-1210): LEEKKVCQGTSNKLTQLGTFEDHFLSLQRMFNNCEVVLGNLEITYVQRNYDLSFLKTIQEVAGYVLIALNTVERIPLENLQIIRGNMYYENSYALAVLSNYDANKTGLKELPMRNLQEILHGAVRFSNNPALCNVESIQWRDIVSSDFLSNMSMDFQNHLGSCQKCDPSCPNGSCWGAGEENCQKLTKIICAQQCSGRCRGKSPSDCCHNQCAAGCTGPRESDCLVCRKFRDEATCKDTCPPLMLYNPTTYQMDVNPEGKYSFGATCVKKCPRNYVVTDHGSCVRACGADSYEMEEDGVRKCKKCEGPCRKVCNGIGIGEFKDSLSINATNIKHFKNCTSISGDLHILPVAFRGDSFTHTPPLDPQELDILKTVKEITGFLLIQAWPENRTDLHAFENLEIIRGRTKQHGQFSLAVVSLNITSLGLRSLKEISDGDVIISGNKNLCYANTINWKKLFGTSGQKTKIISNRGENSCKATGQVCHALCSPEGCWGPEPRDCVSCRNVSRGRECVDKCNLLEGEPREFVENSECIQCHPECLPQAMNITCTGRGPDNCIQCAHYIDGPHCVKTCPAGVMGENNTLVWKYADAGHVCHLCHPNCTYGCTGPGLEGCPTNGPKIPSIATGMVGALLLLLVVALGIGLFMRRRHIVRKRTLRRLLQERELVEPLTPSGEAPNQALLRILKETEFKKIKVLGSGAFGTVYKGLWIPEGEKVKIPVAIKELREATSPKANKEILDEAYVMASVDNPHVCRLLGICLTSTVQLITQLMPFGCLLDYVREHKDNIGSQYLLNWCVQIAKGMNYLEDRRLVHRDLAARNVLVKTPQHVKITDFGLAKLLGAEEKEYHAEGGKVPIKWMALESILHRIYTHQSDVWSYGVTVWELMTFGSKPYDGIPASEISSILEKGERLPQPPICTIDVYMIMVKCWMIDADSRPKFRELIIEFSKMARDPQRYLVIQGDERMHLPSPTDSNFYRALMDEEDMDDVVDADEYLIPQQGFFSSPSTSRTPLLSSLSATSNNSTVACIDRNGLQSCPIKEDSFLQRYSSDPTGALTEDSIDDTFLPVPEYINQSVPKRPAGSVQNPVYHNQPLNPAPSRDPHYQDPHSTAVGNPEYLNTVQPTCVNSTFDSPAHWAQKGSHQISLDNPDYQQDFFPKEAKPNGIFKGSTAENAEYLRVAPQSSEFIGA

EGFR Del (PC9) = target: T3, EGFR Del (PC9) (Homo sapiens, UniProt P00533, DEL746-750); test: EGFR ELISA, PC9 Del cells; conditions: read-out: EGFR_ELISA9E PC9 Del IC50;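 note: cellular EGFR autophosphorylation at Tyr1068 quantified by sandwich ELISA of cell lysates after 2 h compound exposure at 37 °C, 11-point threefold dilution series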
T3 construct: endogenous in cells; host or cells: PC-9

[2] = target: T4, EGFR L858R+T790M, endogenous (Homo sapiens, UniProt P00533, L858R/T790M); test: pEGFR Y1068 ELISA assay, NCI-H1975 cells; conditions: value marked (H1975): NCI-H1975 cells, 2 hrs compound treatment; read-out: pEGFRY1068 ELISA3T3T790M—L858R IC50 (nM), (H1975);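 note: sandwich ELISA of endogenous phospho-EGFR (Tyr1068) in lysates of treated cells, 11-point 1:3 serial dilution tested in duplicate per plate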
T4 construct: NCI-H1975 (EGFR L858R+T790M, endogenous); host or cells: NCI-H1975
T4 sequence (P00533 25-1210 T790M/L858R): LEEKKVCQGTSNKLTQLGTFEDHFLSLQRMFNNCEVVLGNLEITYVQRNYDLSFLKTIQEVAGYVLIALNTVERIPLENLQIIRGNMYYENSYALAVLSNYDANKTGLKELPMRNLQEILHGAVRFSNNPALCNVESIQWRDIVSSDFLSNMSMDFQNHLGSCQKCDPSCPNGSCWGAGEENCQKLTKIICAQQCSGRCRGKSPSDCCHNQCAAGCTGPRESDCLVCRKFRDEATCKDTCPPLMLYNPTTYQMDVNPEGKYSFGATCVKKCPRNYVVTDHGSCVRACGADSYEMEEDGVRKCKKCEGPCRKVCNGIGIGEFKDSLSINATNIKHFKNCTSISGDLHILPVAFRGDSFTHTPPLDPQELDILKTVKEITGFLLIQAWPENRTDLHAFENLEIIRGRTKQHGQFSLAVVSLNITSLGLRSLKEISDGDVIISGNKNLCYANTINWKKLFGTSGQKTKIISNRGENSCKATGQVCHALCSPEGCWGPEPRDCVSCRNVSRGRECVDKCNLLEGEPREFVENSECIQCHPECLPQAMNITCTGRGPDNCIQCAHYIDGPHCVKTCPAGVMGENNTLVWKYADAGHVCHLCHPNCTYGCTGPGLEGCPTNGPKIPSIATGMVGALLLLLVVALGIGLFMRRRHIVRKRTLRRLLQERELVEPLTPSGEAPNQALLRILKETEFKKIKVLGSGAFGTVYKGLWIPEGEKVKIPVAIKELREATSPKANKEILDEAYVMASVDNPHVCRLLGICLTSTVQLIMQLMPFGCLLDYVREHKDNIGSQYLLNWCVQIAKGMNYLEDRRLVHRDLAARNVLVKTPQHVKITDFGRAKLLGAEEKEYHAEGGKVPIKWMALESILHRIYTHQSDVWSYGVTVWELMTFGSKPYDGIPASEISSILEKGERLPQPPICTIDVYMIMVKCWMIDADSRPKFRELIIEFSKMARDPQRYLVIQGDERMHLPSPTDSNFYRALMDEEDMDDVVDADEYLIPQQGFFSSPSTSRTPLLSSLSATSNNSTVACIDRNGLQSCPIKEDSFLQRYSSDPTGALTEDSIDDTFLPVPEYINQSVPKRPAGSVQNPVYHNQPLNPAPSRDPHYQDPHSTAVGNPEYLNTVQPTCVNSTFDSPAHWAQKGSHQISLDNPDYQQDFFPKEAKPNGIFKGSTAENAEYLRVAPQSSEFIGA

EGFR E746-A750 deletion = EGFR E746-A750 deletion (Homo sapiens, UniProt P00533, DEL746-750); test: pEGFR Y1068 ELISA assay, NIH3T3/EGFR_E746-A750 deletion cells; conditions: 3T3 Del cells, 2 hrs compound treatment; read-out: ELISA7E 3T3 Del IC50;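 note: sandwich ELISA on cell lysates detecting phospho-EGFR at Tyr1068, compounds run as 11-point threefold dilution series in duplicate, IC50 from inhibition of this phosphorylation signal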
NIH3T3/EGFR L858R+T790M = test: Cell proliferation assay (CellTiter-Glo), NIH3T3/EGFR L858R+T790M; conditions: Mus musculus, NIH3T3, 120 h, 3T3 cell line, three to five days of compound treatment, read-out: 3T3 L858R_T790M IC50
NIH3T3/EGFR_L858R = test: Cell proliferation assay (CellTiter-Glo), NIH3T3/EGFR_L858R; conditions: Mus musculus, NIH3T3, 120 h, 3T3 cell line, three to five days of compound treatment, read-out: 3T3 L858R IC50
Experimental: (§1) Cell proliferation was measured using the CellTiter-Glo® Luminescent Cell Viability Assay. The assay involves the addition of a single reagent (CellTiter-Glo® Reagent) directly to cells cultured in serum-supplemented medium. The assay uses this one-step addition to induce cell lysis and generate a luminescent signal proportional to the amount of ATP present which is directly proportional to the number of metabolically active cells present in culture. The following cell lines were evaluated in this assay: NIH3T3/EGFR_L858R, NIH3T3/EGFR_E746-A750_deletion, NIH3T3/EGFR L858R+T790M, NIH3T3/EGFR_E746-A750_deletion+T790M, PC-9, PC9-DRH, NCI-H1975, and NCI-H3255. NIH/3T3 parental cells, NCI-H1975, and NCI-H3255 were purchased from the American Type Culture Collection (Manassas, Va.), and PC-9 cells were obtained from Japan. All cells were cultured according to recommendations. NIH/3T3 cells were grown in DMEM (Invitrogen, Carlsbad, Calif.) supplemented with 10% newborn calf serum (Invitrogen), and NIH3T3/EGFR mutant cells were grown in complete media with 5 μg/mL puromycin (Invitrogen). PC-9, NCI-H1975, and NCI-H3255 were grown in RPMI (Invitrogen, Carlsbad, Calif.) supplemented with 10% FBS (Sigma, St Louis, Mo.), and PC9-DRH cells were grown in complete media with 2 uM PF-00299804. Plasmids (pLPCX) with various EGFR constructs were made by GenScript (Piscataway, N.J.), and stable pools of NIH/3T3 cells expressing these constructs were made at Pfizer La Jolla. PC9-DRH cells were generated at Pfizer La Jolla by exposing cells to increasing concentrations of PF-00299804. Cells were plated in complete culture media (3000-5000 cells/well, 50 μl/well) on the bottom of white clear-bottom tissue culture treated microtiter plates (#3610, Corning Inc, Corning, N.Y.) and allowed to adhere overnight at 37° C., 5% CO2. The following day, compound dilution plates were prepared in 96 well clear V-bottom 0.5 mL polypropylene block plates (#3956, Corning, Inc). All cell lines were not evaluated for each compound. Each compound evaluated was prepared as a DMSO stock solution (10 mM). Compounds were tested in duplicate on each plate, with an 11-point serial dilution curve (1:3 dilution). Compound treatment (50 μl) was added from the compound dilution plate to the cell plate. The highest compound concentration was 1 or 10 μM (final), with a 0.3% final DMSO (#D-5879, Sigma, St Louis, Mo.) concentration. Plates were then incubated at 37° C., 5% CO2. After three to five days of compound treatment, CellTiter-Glo® Reagent (#G7573, Promega, Madison, Wis.) was prepared in one of two ways. If thawing a frozen aliquot of CellTiter-Glo® Reagent, the aliquot was thawed and equilibrated to room temperature prior to use while keeping it protected from light. Alternatively, new bottles of CellTiter-Glo® Buffer and CellTiter-Glo® Substrate were thawed and equilibrated to room temperature prior to use. CellTiter-Glo® Buffer (100 mL) was transferred into the amber bottle containing CellTiter-Glo® Substrate to reconstitute the lyophilized enzyme/substrate mixture, forming the CellTiter-Glo® Reagent. The reconstituted reagent was mixed by gently inverting the contents to obtain a homogeneous solution, and went into solution easily in less than one minute. Any unused reconstituted CellTiter-Glo® Reagent was immediately aliquoted and frozen at −20° C., protected from light. Cell plates were equilibrated at room temperature for approximately 30 minutes. An equivolume amount of CellTiter-Glo® Reagent (100 μL) was added to each well. Plates were mixed for two minutes on an orbital shaker to induce cell lysis, and then allowed to incubate at room temperature for 10 minutes to stabilize the luminescent signal. Luminescence was recorded using the PerkinElmer EnVision Excite Multilabel Reader used for endpoint reading for Luminescence detection (Waltham, Mass.). Data were analyzed using a four-parameter fit in Microsoft Excel. […]

EGFR L858R+T790M = EGFR L858R+T790M (Homo sapiens, UniProt P00533, L858R/T790M); test: pEGFR Y1068 ELISA assay, NIH3T3/EGFR_L858R+T790M cells; conditions: 3T3 cell line, 2 hrs compound treatment; read-out: pEGFRY1068 ELISA3T3T790M—L858R IC50;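 note: sandwich ELISA of EGFR phosphorylated at Tyr1068 in lysates of stably transfected NIH/3T3 cells, 11-point threefold dilution series run in duplicate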
EGFR L858R = EGFR L858R (Homo sapiens, UniProt P00533, L858R); test: pEGFR Y1068 ELISA assay, NIH3T3/EGFR_L858R cells; conditions: 3T3 cell line, 2 hrs compound treatment; read-out: pEGFRY1068 ELISA3T3 L858R IC50;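 note: sandwich ELISA of phospho-EGFR Tyr1068 in lysates of stably transfected NIH/3T3 pools after 2 h compound exposure at 37 °C, 11-point threefold dilution series run in duplicate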
Chain of EGFR L858R (P00533 25-1210 L858R): as the sequence (P00533 25-1210 L858R) above

[3] = test system: NIH3T3/EGFR_E746-A750_deletion; test: Cell proliferation assay (CellTiter-Glo), NIH3T3/EGFR_E746-A750_deletion; conditions: Mus musculus, NIH3T3, 120 h, 3T3 cell line, three to five days of compound treatment, read-out: 3T3 del IC50
Experimental: as §1

[4] = test system: NIH3T3/EGFR_E746-A750_deletion+T790M; test: Cell proliferation assay (CellTiter-Glo), NIH3T3/EGFR_E746-A750_deletion+T790M; conditions: Mus musculus, NIH3T3, 120 h, 3T3 cell line, three to five days of compound treatment, read-out: 3T3 del_T790M IC50
Experimental: as §1

Row | SMILES | IC50 (EGFR L858R, endogenous) | IC50 [1] | IC50 (EGFR Del (PC9)) | IC50 [2] | IC50 (EGFR E746-A750 deletion) | IC50 (EGFR L858R+T790M) | IC50 (EGFR L858R) | IC50 (NIH3T3/EGFR L858R+T790M) | IC50 (NIH3T3/EGFR_L858R) | IC50 [3] | IC50 [4]
1 | C=CC(=O)N[C@H]1C[C@@H](Oc2nc(Nc3cnn(C)c3)nc3[nH]cc(C#N)c23)C1 (single isomer, unassigned) [Example 5, N-[cis-3-({5-cyano-2-[(1-methyl-1H-pyrazol-4-yl)amino]-7H-pyrrolo[2,3-d]pyrimidin-4-yl}oxy)cyclobutyl]prop-2-enamide] |  | > 10000 nM | 982 nM |  | 1320 nM | 221 nM | 1810 nM | 100 to 1000 nM | > 1000 nM | 100 to 1000 nM | 100 to 1000 nM
2 | C=CC(=O)N(C)[C@H]1C[C@H](Oc2nc(Nc3cnn(C)c3)nc3[nH]cc(-c4ccn(C)n4)c23)C1 [Example 86] | 477 nM | > 10000 nM | 2340 nM | 266 nM |  |  |  |  |  |  | 
3 | C=CC(=O)N(C)[C@H]1C[C@H](Oc2nc(Nc3cn(C)nc3C)nc3[nH]cc(Cl)c23)C1 [Example 62] |  | > 10000 nM | 558 nM |  | 237 nM | 10 nM | 218 nM | 10 to 100 nM | 10 to 100 nM | 10 to 100 nM | < 10 nM
4 | C=CC(=O)N1CC(Nc2nc(Nc3cnn(C)c3)nc3[nH]cc(Cl)c23)C1 [Example 79] | 776 nM | > 10000 nM | > 6760 nM | 136 nM |  |  |  |  |  |  | 
5 | C=CC(=O)N1C[C@@H]2CN(c3nc(Nc4cnn(C)c4)nc4[nH]cc(Cl)c34)C[C@]2(O)C1 [Example 84] | 1100 nM |  | 5240 nM | 175 nM |  |  |  |  |  |  | 
6 | C=CC(=O)Nc1cccc(Oc2nc(Nc3cnn(C)c3)nc3[nH]cc(C#N)c23)c1 [Example 57] |  | > 10000 nM | 44 nM |  | 25 nM | 67 nM | 105 nM | 10 to 100 nM | > 1000 nM | < 10 nM | 10 to 100 nM
7 | C=CC(=O)N[C@H]1CC[C@@H](Oc2nc(Nc3cnn(C)c3)nc3[nH]cc(Cl)c23)C1 [Example 77] |  | > 10000 nM |  | 301 nM |  |  | 5190 nM | 100 to 1000 nM | > 1000 nM | > 1000 nM | 100 to 1000 nM
8 | C=CC(=O)N[C@@H]1CCCN(c2nc(Nc3cnn(C)c3)nc3[nH]cc(Cl)c23)C1 [Example 11, N-[(3R)-1-{5-chloro-2-[(1-methyl-1H-pyrazol-4-yl)amino]-7H-pyrrolo[2,3-d]pyrimidin-4-yl}piperidin-3-yl]prop-2-enamide] |  | > 10000 nM |  | 525 nM |  |  | 8860 nM | 100 to 1000 nM | > 1000 nM | > 1000 nM | 100 to 1000 nM
9 | C=CC(=O)Nc1cccc(Oc2nc(Nc3ccn(C)n3)nc3[nH]cc(C#N)c23)c1 [Example 36] |  | > 10000 nM |  |  | 45 nM | 20 nM | 418 nM | 100 to 1000 nM | > 1000 nM | 10 to 100 nM | 10 to 100 nM
10 | C=CC(=O)Nc1cccc(Oc2nc(Nc3cc[nH]n3)nc3[nH]ccc23)c1 [Example 27] |  | > 10000 nM |  | 146 nM | 56 nM |  |  |  |  |  | 
11 | C=CC(=O)N1C[C@H](COc2nc(Nc3cn(C)nc3OC)nc3[nH]cc(Cl)c23)[C@@H](OC)C1 [Example 70] |  | > 10000 nM | 592 nM |  | 269 nM | 12 nM | 113 nM | 100 to 1000 nM | 100 to 1000 nM | 100 to 1000 nM | 10 to 100 nM
12 | C=CC(=O)Nc1cccc(Oc2nc(Nc3ccn(CC)n3)nc3[nH]ccc23)c1 [Example 22] |  | > 10000 nM |  |  | 27 nM | 11 nM | 81 nM | 10 to 100 nM | 100 to 1000 nM | < 10 nM | < 10 nM
13 | C=CC(=O)N1C[C@@H]2CN(c3nc(Nc4cnn(C)c4)nc4[nH]cc(Cl)c34)C[C@]2(OC)C1 (single isomer, unassigned) [Example 88] | 41 nM |  | 630 nM | 34 nM |  |  |  |  |  |  | 

Continued, in another order:

Row | IC50 (EGFR L858R, endogenous) | IC50 [1] | IC50 (EGFR Del (PC9)) | IC50 [2] | IC50 (EGFR E746-A750 deletion) | IC50 (EGFR L858R+T790M) | IC50 (EGFR L858R) | SMILES | IC50 (NIH3T3/EGFR L858R+T790M) | IC50 (NIH3T3/EGFR_L858R) | IC50 [3] | IC50 [4]
14 | > 8580 nM | > 10000 nM | > 10000 nM | 457 nM |  |  |  | C=CC(=O)N[C@]1(C)C[C@@H](Oc2nc(Nc3cnn(C)c3)nc3[nH]cc(Cl)c23)C1 [Example 113] |  |  |  | 
15 | 241 nM | > 10000 nM |  | 63 nM |  |  |  | C=CC(=O)N1CCOC2(CCN(c3nc(Nc4cnn(C)c4)nc4[nH]cc(Cl)c34)C2)C1 (single isomer, unassigned) [Example 112] |  |  |  | 
16 | 85 nM | > 10000 nM | 953 nM | 73 nM |  |  |  | C=CC(=O)N1C[C@H](COc2nc(Nc3cn(CC#N)nc3C)nc3[nH]cc(Cl)c23)[C@@H](OC)C1 [Example 115] |  |  |  | 
17 | 608 nM |  | 4430 nM | 385 nM |  |  |  | C=CC(=O)N(C)[C@@H]1CCCN(c2nc(Nc3cnn(C)c3)nc3[nH]cc(Cl)c23)C1 [Example 94] |  |  |  | 
18 |  | > 10000 nM | 352 nM |  | 81 nM | 7 nM | 164 nM | C=CC(=O)N(C)[C@H]1C[C@H](Oc2nc(Nc3cnn(C)c3)nc3[nH]cc(Cl)c23)C1 [Example 108] | 10 to 100 nM | 100 to 1000 nM | 10 to 100 nM | < 10 nM
19 | 26 nM |  | 383 nM | 31 nM |  |  |  | C=CC(=O)N1C[C@H](COc2nc(Nc3cnn(CC#N)c3)nc3[nH]cc(Cl)c23)[C@@H](OC)C1 [Example 93] |  |  |  | 
